In patent publication US20150366962A1 (priority 2014, published 2015):

Assays:
OVA = OVA immunization: anti-OVA IgG1 and IgG2c by ELISA; type: in vivo, C57BL/6 mice; conditions: i.m. OVA 20 μg plus adjuvant, sera day 35
[1] = tested on: human umbilical vein cells (HUVEC); test: Chemokine induction in HUVEC; type: cell-based
Description: TLR7 expression in humans is limited to plasmacytoid DC and B cells, and different from the expression in mice. Conversely, TLR4 is abundantly expressed in different cell types in humans and mice. Thus, experiments were performed to determine whether 1Z105 and 1V270 could stimulate human umbilical vein cells (HUVEC) and myeloid dendritic cells.

PR/8 virus / PR/8 HA = test: Long-term memory response after rPR/8 HA: HAI titers, B cell and IFN-γ ELISpot; type: in vivo, BALB/c mice
Description: (A) BALB/c mice were i.m. immunized with rPR/8 HA (5 μg/animal) on day 0 with the indicated adjuvant or vehicle, and sera were collected every 3 weeks (red drops). (B) Levels of antigen-specific total IgG were measured by ELISA. (C) The serum HAI titer to PR/8 virus was assayed at 6 weeks after immunization, with a detection limit of 1:40 serum dilution; nd, not detectable. (D and E) Eighteen weeks after immunization, mice (n=5/group) were administered 10 mLD50 of PR/8 virus and monitored for morbidity, as measured by body weight loss (D), and mortality (E) induced by the viral challenge. […]
AddaVax was used at a 1:1 ratio with antigen in PBS. […] IFN-γ spot-forming cells were detected with the IFN-γ ELISpot ALP kit (3321-2A; Mabtech, Cincinnati, Ohio). Antigen specific B cells from splenocytes were quantified 5 days after reexposure to antigen (5 μg of rPR/8HAin PBS only administered i.m.) by plating them on ELISpot plates coated with rPR/8 protein (Strep tag purified) for 20 h, and detection of secreted antibody was performed with an anti-mouse IgG secondary antibody conjugated to horseradish peroxidase (HRP).
Anti-OVA antibodies of the IgG subclasses IgG1 and IgG2c were measured by ELISA. Each ELISA plate contained a titration of a previously quantitated serum to generate a standard curve. […] Total IgG, IgG1, and IgG2a were detected.

rPR/8 HA = rPR/8 HA single immunization: serum antibody ELISA; type: in vivo, BALB/c mice; conditions: for seroconversion to rPR/8 HA (total IgG, IgG1, IgG2a): 5 μg rPR/8 HA i.m. day 0, sera days 7, 14, 21; for total serum IgG reactive to antigen, long term / IgG2a/IgG1 ratio (Th1-Th2 immune balance): 5 μg rPR/8 HA; for total serum IgG reactive to antigen, long term: bled every 3 weeks up to 18 weeks; for IgG2a/IgG1 ratio (Th1-Th2 immune balance): single immunization

## Cn1c2ccccc2c2nc(SCC(=O)NC3CCCCC3)n(-c3ccccc3)c(=O)c21 [Compound 1Z105]
OVA
  serum anti-OVA IgG1 titers versus OVA alone: significantly higher
[1]
  induction of chemokines MCP-1 and IL-8: induced the chemokines MCP-1, and IL-8
PR/8 virus / PR/8 HA; 5 days after reexposure versus preboost
  fold increase in HAI titer induced by the boost: significant only in the 1Z105 group
rPR/8 HA
  seroconversion to rPR/8 HA (total IgG, IgG1, IgG2a): induced rapid seroconversion
  total serum IgG reactive to antigen, long term: induced a robust and sustained IgG response
  IgG2a/IgG1 ratio (Th1-Th2 immune balance): produced predominately IgG1 in a Th2-type response
rPR/8 HA; 5, 1 or 0.2 μg rPR/8 HA, 3 weeks after immunization
  difference in serum IgG endpoint titers among rHA doses (antigen sparing): no significant difference

## CCCCCCCCC=CCCCCCCCC(=O)OCC(COP(=O)(O)OCCNC(=O)c1ccc(Cn2c(=O)[nH]c3c(N)nc(OCCOC)nc32)cc1)OC(=O)CCCCCCCC=CCCCCCCCC (centres unmarked) [Compound 1V270]
OVA
  serum anti-OVA IgG1 titers versus OVA alone: did not induce IgG1 comparably to 1Z105
  serum anti-OVA IgG2c titers versus OVA alone: significantly higher IgG2c titers
[1]
  induction of chemokines MCP-1 and IL-8: minimal effects
PR/8 virus / PR/8 HA; splenocytes 6 months after immunization, PR/8 HA peptide pool overnight
  antigen-specific IFN-γ-producing T cells (ELISpot): induced antigen-specific IFN-γ T cells that were long lived
rPR/8 HA
  seroconversion to rPR/8 HA (total IgG, IgG1, IgG2a): induced rapid seroconversion
  total serum IgG reactive to antigen, long term: induced a robust and sustained IgG response
  IgG2a/IgG1 ratio (Th1-Th2 immune balance): induced both IgG1 and IgG2a in a more balanced Th1-Th2-type response
